“Also recorded” adds a separate entry of the source.
How the values were obtained:
Assay type in all cases: cell-based
SKOV3 CR cells [1] = assay: cell viability / proliferation (SRB) assay, cisplatin resistant SKOV3 CR cells; conditions: combination with carboplatin, CI<1 synergism
PEO4 cells = assay: cell proliferation assay, PEO4 cells
Source text: FIG. 63 is a line graph showing the proliferation of PEO1 and PEO4 cells treated with increasing concentrations of cisplatin for 5 days. Data are represented as mean±SD from three independent experiments performed in triplicate. Indicated IC50 values represent the mean of […] independent experiments performed in triplicate.
FIG. 64 is a bar graph showing the synergistic effects of LY2784544 and cisplatin in PEO4 cells. CI values are presented above the bars. CI<1 indicates synergism, CI=1 indicates additive effect, and CI>1 indicates antagonism.
For ovarian cancer, recurrence more than 12 months after initial chemotherapy was considered as platinum sensitive. PEO4 was derived from the patient 10 months later when they had progressive disease and had become cisplatin resistant.

[2] = system: phosphorylation of JAK2 (Y1007/1008) and STAT5 (Y694); assay: western blot of JAK2/STAT5 signaling
Description: FIG. 22 is an illustration showing that LY2784544 down-regulates JAK2/STAT5 signaling in SKOV3 CR cells. Cells were treated with the indicated concentrations of LY2784544 for 48 hr.
FIG. 23 is an illustration showing the immunoblotting for the indicated targets in SKOV3 CR cells treated with vehicle (DMSO), 3 μM LY2784544, 5 μM cisplatin, or the combination for 48 hr.
To investigate the molecular mechanism by which the JAK2-mediated pathway regulates cisplatin resistance of ovarian cancer, the activation of the JAK2-mediated pathway in paired sensitive cell line (SKOV3, IGROV1, PEO1) and resistant cell lines (SKOV3 CR, IGROV1 CR, PEO4) was examined by western blot. Compared to cisplatin sensitive cells SKOV3 or IGROV1, the JAK2 protein levels are not changed in cisplatin resistant cells SKOV3 CR, IGROV1 CR, or PEO4.
The effects of LY2784544 on the JAK2/STAT5 signaling pathway in both SKOV3 and SKOV3 CR cells were examined.

SKOV3 cells = assay: cell viability / proliferation (SRB) assay, SKOV3 parental cells
Description: (§1) FIG. 1 is a line graph showing the proliferation of SKOV3 parental and SKOV3 CR cells treated with increasing concentrations of cisplatin for five days. Data are represented as mean±SD from three independent experiments performed in triplicate. Indicated IC50 values represent the mean of two independent experiments performed in triplicate.
(§2) FIG. 13 is a line graph showing the proliferation of SKOV3 parental and SKOV3 CR cells treated with increasing concentrations of cisplatin and 0.4 μM LY2784544 for five days. Data are represented as mean±SD from three independent experiments performed in triplicate.
(§3) Cisplatin resistant ovarian cancer cell lines were generated using procedures as described previously. Jazaeri et al., Mol Cancer Ther 12: 1958-1967 (2013). Ovarian cancer cells SKOV3 were cultured in the medium with cisplatin (Sigma-Aldrich) for three weeks, followed by release to cisplatin-free medium for another three weeks. In the next cycle, the cisplatin treatment was repeated in the medium with an increased concentration of cisplatin. After six-cycle treatment, cells were identified that were able to grow in the medium with a high concentration of cisplatin. These cisplatin resistant cells were named as SKOV3 CR (FIG. 1).
(§4) The results obtained from combinational HTS were confirmed by testing whether LY2784544 overcomes cisplatin resistance in ovarian cancer cells using multiple assays. […] The Combination index (CI), which quantitatively describes the interaction between drugs including synergism (CI<1), additive effect (CI=1), and antagonism (CI>1), was calculated.

SKOV3 CR cells [3] = assay: apoptosis (Annexin V and Propidium Iodide staining, cleaved PARP)
Description: FIG. 2 is an illustration showing representative flow plots (A) and a bar graph (B) of SKOV3 and SKOV3 CR cells treated with cisplatin for 48 h and analyzed for Annexin V and Propidium Iodide staining by flow cytometry (A) and quantified apoptosis percentage (B). Data are represented as mean±SD from three independent experiments performed in triplicate. **p<0.01. FIG. 23 is an illustration showing the immunoblotting for the indicated targets in SKOV3 CR cells treated with vehicle (DMSO), 3 μM LY2784544, 5 μM cisplatin, or the combination for 48 hr. FIG. 24 is an illustration showing representative flow plots of SKOV3 CR cells treated with vehicle, 3 μM LY2784544, 5 μM cisplatin, or the combination (combo) for 48 hr and analyzed for Annexin V and Propidium Iodide staining by flow cytometry. Since cisplatin exerts its anticancer effect mainly through its ability to cause DNA damage, resulting in apoptosis, the apoptotic cells in both SKOV3 and SKOV CR cells were measured using Annexin V and Propidium Iodide staining. […] To test whether SKOV3 CR cells are resistant to cisplatin-induced apoptosis in vivo, both SKOV3 and SKOV3 CR cells were injected into nude mice to form xenograft tumors. Once the tumor size reached 100-150 mm^3, cisplatin was given to mice by intraperitoneal injections twice a week for 2 weeks. Three days after treatment, the apoptosis in tumors was examined by TUNEL staining. […] Currently, carboplatin is a more commonly used platinum drug employed clinically to treat ovarian patients. Ozols et al., J Clin Oncol 21: 3194-3200 (2003). Thus, it was tested whether SKOV3 CR cells are also resistant to carboplatin (Sigma-Aldrich). The effects of LY2784544 on the JAK2/STAT5 signaling pathway in both SKOV3 and SKOV3 CR cells were examined.

SKOV3 CR cells [4] = assay: cell viability / proliferation (SRB) assay, cisplatin resistant SKOV3 CR cells
Description: as §1, §2, §3, §4

IGROV1 CR cells = assay: cell proliferation assay, cisplatin resistant IGROV1 CR cells
Source text: FIG. 60 is a line graph showing the proliferation of IGROV1 parental and IGROV1 CR cells treated with increasing concentrations of cisplatin for 5 days (left). Data are represented as mean±SD from three independent experiments performed in triplicate. Indicated IC50 values represent the mean of two independent experiments performed in triplicate.
FIG. 61 is a bar graph showing the synergistic effects of LY2784544 and cisplatin in IGROV1 CR cells (right). CI values are presented above the bars. CI<1 indicates synergism, […] indicates additive effect, and CI>1 indicates antagonism.
Using a similar approach as described in FIG. 1, another cisplatin resistant ovarian cancer cell line IGROV1 CR was raised from its cisplatin sensitive parental cell IGROV1 cells. […] The cell proliferation of IGROV1 CR cells treated with cisplatin, LY2784544 or both LY2784544 and cisplatin was examined.

[5] = SKOV3 CR cells, 3 μM LY2784544 plus 5 μM cisplatin, 48 hr

Row | Compound | medium CI (combination index) (SKOV3 CR cells [1]) | medium CI (combination index) (PEO4 cells; combination with cisplatin, PEO4 cells) | phosphorylation of JAK2 and STAT5 ([2]; both SKOV3 and SKOV3 CR cells, 48 hr) | medium CI (combination index) (SKOV3 cells; combination with cisplatin, SKOV3 cells, CI<1 synergism) | effect on cell proliferation of SKOV3 (SKOV3 cells; medium with cisplatin or without cisplatin) | apoptosis (cleaved PARP), single agent (SKOV3 CR cells [3]; SKOV3 CR cells, 3 μM LY2784544, 48 hr) | apoptosis (cleaved PARP), combination with cisplatin (SKOV3 CR cells [3]; [5]) | apoptotic cells (Annexin V and Propidium Iodide), combination with cisplatin (SKOV3 CR cells [3]; [5]) | cisplatin IC50 shift ability (comparison of the three hits) (SKOV3 CR cells [4]; SKOV3 CR cells) | sensitization of SKOV3 CR cells to cisplatin (proliferation) (SKOV3 CR cells [4]; combination with cisplatin at different doses, FIG. 13: 0.4 μM LY2784544, five days) | medium CI (combination index) (SKOV3 CR cells [4]; combination with cisplatin, SKOV3 CR cells, CI<1 synergism) | medium CI (combination index) (IGROV1 CR cells; combination with cisplatin, IGROV1 CR cells) | fold increase of IC50, PEO4 vs PEO1 (PEO4 cells; 5 days) [fold] | IC50 (PEO4 cells; PEO4 cells, 5 days) [µM] | JAK2/STAT5 signaling after cisplatin treatment ([2]; SKOV3 parental cells, various small doses and times of cisplatin) | IC50 (SKOV3 cells; SKOV3 parental cells, 5 days) [µM] | apoptosis, SKOV3 versus SKOV3 CR cells (SKOV3 CR cells [3]; cisplatin for 48 h, Annexin V and Propidium Iodide staining) | IC50 (SKOV3 CR cells [4]; SKOV3 CR cells, 5 days) [µM] | fold increase of IC50, IGROV1 CR vs parental IGROV1 (IGROV1 CR cells; 5 days) [fold] | IC50 (IGROV1 CR cells; IGROV1 CR cells, 5 days) [µM]
1 | Cc1cc(Nc2cc(CN3CCOCC3)c3nc(C)c(Cc4ccc(Cl)cc4F)n3n2)n[nH]1 [LY2784544] | 0.75 | 0.34 | significantly reduced the phosphorylation of JAK2 as well as the phosphorylation of STAT5 | 0.93 | did not affect the cell proliferation of SKOV3 | did not cause apoptosis | induced apoptotic cell death | significant increase of apoptotic cells | better cisplatin IC50 shift ability than MLN4924 or NSC319726 | significantly increased the sensitivity of SKOV3 CR cells to cisplatin; also recorded: re-sensitized SKOV3 CR cells to cisplatin | 0.69 | 0.71 |  |  |  |  |  |  |  | 
2 | N.N.[Cl][Pt][Cl] [cisplatin] |  |  |  |  |  |  |  |  |  |  |  |  | 6.2 | 1.99 | JAK2/STAT5 signaling was activated | 2 | induced more apoptosis in SKOV3 cells than in SKOV3 CR cells | 10.4 | 2.9 | 1.5
